# Test results reported in US9290488B2, “Azetidine-substituted quinoxalines as opioid receptor like-1 modulators” (priority 2011, dated 2016).
# Like-named read-outs stand apart in the source and are kept apart here.
# Assays:
# [1] = In vitro metabolic stability, rat liver microsomes; settings: for Metabolic Stability (%) Rat: % of compound remaining after 30 min incubation at 37° C., 2 μM, 0.5 mg/mL rat liver microsomes
# [2] = In vitro assay of free unbound compound (equilibrium dialysis of rat serum); settings: for Free Unbound Drug Fraction (%): rat serum, 2 μg/mL, 24 h equilibrium dialysis at 37° C. against PBS
# [3] = In vitro metabolic stability, human liver microsomes; settings: % of compound remaining after 30 min incubation at 37° C., 2 μM, 0.5 mg/mL human liver microsomes
# [4] = male, Crj:CD (SD), pH 7.4
Structure (SMILES),Metabolic Stability (%) Rat [1] [%],Free Unbound Drug Fraction (%) [2] [%],"free unbound drug fraction, times greater than counterpart d=2 compound ([2]; ratio B20a(ii) / CC02, rat serum)",Metabolic Stability (%) Human [3] [%],"metabolic stability upon exposure to rat liver microsomes, times greater than counterpart d=2 compound [4] [times]","metabolic stability upon exposure to rat liver microsomes, times greater than counterpart d=2 compound ([1]; ratio d=1 compound / d=2 counterpart, rat liver microsomes)"
CC[C@@H]1C[C@@H]2C[C@H](C1)C[C@@H](N1[C@@H]3CCC[C@H]1C[C@@H](n1c(=O)c(N4CC[C@H]4C(=O)O)nc4ccccc41)C3)C2 [B20a(ii)],84,3.3,over 2.7 times,70,,
O=C(O)[C@@H]1CCN1c1nc2ccccc2n([C@H]2C[C@H]3COC[C@@H](C2)N3[C@H]2C[C@@H]3CCC[C@@H](C3)C2)c1=O [C2a(ii)],86,,,67,2.6,
CC12C[C@H]3C[C@@H](N4[C@@H]5COC[C@H]4C[C@@H](n4c(=O)c(N6CC[C@H]6C(=O)O)nc6ccccc64)C5)C[C@@H]1C[C@@H]2C3 [C20a(ii)],62,,,6.5,,over 4.4 times
"O=C(O)[C@@H]1CCCN1c1nc2ccccc2n([C@H]2C[C@H]3CCC[C@@H](C2)N3[C@H]2C[C@@H]3CCC[C@@H](C3)C2)c1=O [CC01, reference compound]",100,,,,,
"CC12C[C@H]3C[C@@H](N4[C@@H]5CCC[C@H]4C[C@@H](n4c(=O)c(N6CCC[C@H]6C(=O)O)nc6ccccc64)C5)C[C@@H]1C[C@@H]2C3 [CC02, reference compound]",97,1.2,,58,,
"O=C(O)[C@@H]1CCCN1c1nc2ccccc2n([C@H]2C[C@H]3COC[C@@H](C2)N3[C@H]2C[C@@H]3CCC[C@@H](CC3)C2)c1=O [CC03, reference compound]",33,,,60,,
"CC12C[C@H]3C[C@@H](N4[C@@H]5COC[C@H]4C[C@@H](n4c(=O)c(N6CCC[C@H]6C(=O)O)nc6ccccc64)C5)C[C@@H]1C[C@@H]2C3 [CC04, reference compound]",14,,,21,,
